Data set [1] is described as follows: Focused Beam Reflectance Measurement (FBRM) of granules in dissolution bath. Type of data set: physicochemical. The settings on record: granules stored at 40° C. and 75% RH for one month. Here is the method: Focused Beam Reflectance Measurement (FBRM) analyses were conducted in dissolution studies. The FBRM technique involves the insertion of a probe directly into a process stream, at an angle, to ensure particles can flow easily across the probe window where the measurement takes place. A laser beam is launched down the probe tube through a set of optics and focused to a tight beam spot at the sapphire window. The optics rotate at a fixed speed (typically 2 m/s) resulting in the beam spot rapidly scanning across particles as they flow past the window. As the focused beam scans across the particle system, individual particles or particle structures will backscatter the laser light to the detector. These distinct pulses of backscattered light are detected, counted, and the duration of each pulse is multiplied by the scan speed to calculate the distance across each particle. This distance is defined as the chord length, a fundamental measurement of the particle related to the particle size, and a precise and highly sensitive chord length distribution can be reported in real time, thus tracking how particle size and count change over time. […]
The integration time was set to 5 seconds. […] From that dataset kinetic curves were calculated showing different size fractions and the fraction 40-100 μm was the fraction selected for comparison. […]

Data set [2] in a line: Mercury intrusion porosimetry (pore volume, pore size distribution). Format: physicochemical. Here is the method:
The pore volume and the pore size distribution were determined using mercury intrusion porosimetry (Micromeritics AutoPore III 9410). The determination was performed within the pore diameter interval 115 μm≥ϕ≥0.0030 μm (30 Å). The surface tension and the contact angle of mercury are set to 485 mN/m and 130°, respectively. Blank correction has been used to compensate for compaction of parts of the penetrometer system at high pressures. The test materials used were: ticagrelor granules (“3606”), final tablet blend (“3606 FB”); F-melt type C granules (“F-melt”); Ticagrelor particles from supplier 1 (“AZ”); Ticagrelor particles from supplier 2 (“DSM”); Ticagrelor particles from supplier 3 (“Omnichem”).
One of the penetrometers used for analysis of the granules was used for the reference test. The result gave a cumulative pore volume of 0.55 cm^3/g and a median pore diameter (based on volume) of 73 Å. The reference values are 0.56±0.02 cm^3/g and 75±5 Å, respectively.

Data set [3] is described as follows: Relative bioavailability study (clinical study A), plasma pharmacokinetics of ticagrelor and AR-C124910XX. Type of data set: in vivo, healthy male and female subjects. Here is the method:
A relative bioavailability study (hereafter referred to as clinical study A) compared the orodispersible tablet of Example 7, administered with water (after oral dispersion) and without water, to a film-coated tablet containing 90 mg of ticagrelor. In clinical study A the orodispersible tablet was also suspended in water and administered through a nasogastric tube and compared to the film-coated tablet.
This study was an open-label, randomised, four-period, four-treatment, crossover study in healthy male and female of non-childbearing potential subjects, performed at a single study centre. The study was comprised of: • A screening period of maximum 21 days; • Four treatment periods during which subjects were resident prior to the evening meal the night before dosing with ticagrelor (Day −1) until at least 48 hours after dosing; discharged on the morning of Day 3; and • A final visit within 5 to 10 days after the last administration of ticagrelor.
Subjects received single doses of ticagrelor in 4 different ways under fasted conditions. Following an overnight fast of at least 10 hours, each subject received a single dose of each treatment on 4 occasions, respectively.
The PK parameters were assessed for ticagrelor (parent) and its active metabolite AR-C124910XX based on plasma concentrations.
Pharmacokinetic parameters were summarised for each treatment using descriptive statistics. Where possible, the following descriptive statistics were presented: n, geometric mean, geometric CV, arithmetic mean, arithmetic standard deviation, median, minimum and maximum. For tmax, only n, median, minimum and maximum were presented.
Bioavailability comparison of treatments A, B and C (test product) and D (reference product) were assessed on the ratio of log-transformed Cmax, AUC0-t, and AUC of both ticagrelor and AR-C124910XX using a 2-sided 90% confidence interval (CI) approach based on an analysis of variance (ANOVA) model including fixed effects for treatment, sequence, period and subject within sequence.
All PK parameters were log-transformed prior to analysis. The estimated treatment differences and the 90% CIs on the log scale were back transformed to obtain the geometric mean ratios for each pair of treatments.

Data set [4] is described as follows: Powder flow indices (Carr's index, Hausner ratio). Type of data set: physicochemical. The note with it: ticagrelor powders. The text has this:
Ticagrelor powders are characterised by poor flowability, for example as indicated by a large Hausner ratio (tap density/bulk density ˜1.8-2.0).

Setting [5] is: pores <8, post-storage 1 month at 40° C./75% RH.
Where [6] appears, read: pores >8, post-storage 1 month at 40° C./75% RH.
Where [7] appears, read: plasma, single 90 mg ticagrelor dose, fasted, range across treatments.

SMILES strings stand for the structures.

Usually Tmax stands for the time at which the peak concentration occurs.

With `CCCSc1nc(N[C@@H]2C[C@H]2c2ccc(F)c(F)c2)c2nnn([C@@H]3C[C@H](OCCO)[C@@H](O)[C@H]3O)c2n1` [AZ], the “Particle dissolution by FBRM after storage compared with non-stored granules” value in data set [1] is “slower particle dissolution”. Also, the “Median pore diameter (vol)” value in data set [2] (setting [5]) worked out at 1.1 μm; in data set [2] (pores <8, pre-storage), 0.9 μm; in data set [2] (setting [6]) it was 27 μm; in data set [2] (pores >8, pre-storage) it was 24 μm. Also, the Pore area in data set [2] (setting [5]) is 14 m^2/g; in data set [2] (pores <8, pre-storage), 14 m^2/g; in data set [2] (setting [6]), 0.1 m^2/g; in data set [2] (pores >8, pre-storage), 0.1 m^2/g. Besides, the Pore volume in data set [2] (setting [5]) worked out at 0.23 cm^3/g; in data set [2] (pores <8, pre-storage) it was 0.23 cm^3/g; in data set [2] (setting [6]) it was 0.69 cm^3/g; in data set [2] (pores >8, pre-storage), 0.62 cm^3/g.
As to `CCCSc1nc(N[C@@H]2C[C@H]2c2ccc(F)c(F)c2)c2nnn([C@@H]3C[C@H](OCCO)[C@@H](O)[C@H]3O)c2n1` [ticagrelor, (1S,2S,3R,5S)-3-[7-{[(1R,2S)-2-(3,4-difluorophenyl)cyclopropyl]amino}-5-(propylthio)-3H[1,2,3]-triazolo[4,5-d]pyrimidin-3-yl]-5-(2-hydroxyethoxy)cyclopentane-1,2-diol], the Tmax in data set [3] (both sexes, human, oral, plasma, single 90 mg ticagrelor dose, fasted, across OD (with water, without water, NG tube) and IR tablets, read-out: median tmax) is around 2 h. In data set [3] (setting [7]), the “terminal mean t1/2λz” value lay within 7.99 to 8.21 h. In addition, the “Hausner ratio (tap density/bulk density)” value in data set [4] is reported as 1.8-2.0.
Take `CCCSc1nc(N[C@@H]2C[C@H]2c2ccc(F)c(F)c2)c2nnn([C@@H]3C[C@H](OCCO)[C@@H](O)[C@H]3O)c2n1` [DSM]: the “Median pore diameter (vol)” value in data set [2] (setting [5]) was 1.5 μm; in data set [2] (pores <8, pre-storage), 1.2 μm; in data set [2] (setting [6]), 20 μm; in data set [2] (pores >8, pre-storage), 19 μm. The Pore area in data set [2] (setting [5]) is 12 m^2/g; in data set [2] (pores <8, pre-storage), 13 m^2/g; in data set [2] (setting [6]), 0.1 m^2/g; in data set [2] (pores >8, pre-storage), 0.1 m^2/g. The Pore volume in data set [2] (setting [5]) is on record as 0.29 cm^3/g; in data set [2] (pores <8, pre-storage), 0.28 cm^3/g; in data set [2] (setting [6]), 0.64 cm^3/g; in data set [2] (pores >8, pre-storage), 0.59 cm^3/g.
With `CCCSc1nc(N[C@@H]2C[C@H]2c2ccc(F)c(F)c2)c2nnn([C@@H]3C[C@H](O)[C@@H](O)[C@H]3O)c2n1` [AR-C124910XX], the median tmax in data set [3] (plasma, single 90 mg ticagrelor dose, fasted, across OD (with water, without water, NG tube) and IR tablets) is 2 to 3 h. The “terminal mean t1/2λz” value in data set [3] (setting [7]) fell in the range of 9.35 to 9.48 h. Further, in data set [3] (range across treatments), the “Plasma metabolite AUC as % of plasma ticagrelor AUC” value is recorded as 38.2-40.5% and the “Plasma metabolite Cmax as % of plasma ticagrelor Cmax” value is recorded as 27.1-30.0%.
As for `CCCSc1nc(N[C@@H]2C[C@H]2c2ccc(F)c(F)c2)c2nnn([C@@H]3C[C@H](OCCO)[C@@H](O)[C@H]3O)c2n1` [Omnichem], the “Median pore diameter (vol)” value in data set [2] (setting [5]) turned out to be 0.5 μm; in data set [2] (pores <8, pre-storage) it was 0.5 μm; in data set [2] (setting [6]), 36 μm; in data set [2] (pores >8, pre-storage) it was 35 μm. In addition, the Pore area in data set [2] (setting [5]) is recorded as 9 m^2/g; in data set [2] (pores <8, pre-storage), 12 m^2/g; in data set [2] (setting [6]), below 0.1 m^2/g; in data set [2] (pores >8, pre-storage) it was below 0.1 m^2/g. In addition, the Pore volume in data set [2] (setting [5]) is given as 0.18 cm^3/g; in data set [2] (pores <8, pre-storage), 0.28 cm^3/g; in data set [2] (setting [6]) it was 0.61 cm^3/g; in data set [2] (pores >8, pre-storage) it was 0.53 cm^3/g.

Values taken from patent publication US10729655B2, “Orally disintegrating tablets” (AstraZeneca AB, priority 2016, dated 2020).
